Several values for one entry are separate records, joined by “and”; a condition that tells them apart may be missing. Identical values can stand only once. Inconclusive results and toxic doses are left out. Rule as the data show it: active = T/C of 150% or more; inactive = T/C below 125%.
System: L1210 leukemia ip in BDF1 mice, survival T/C
Assay: NCI In Vivo Anticancer Drug Screen. Data for tumor model L1210 Leukemia (intraperitoneal) in B6D2F1 (BDF1) mice
Conditions: endpoint: mean survival time, higher = longer survival
How it was run: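 Read-out is survival time, reported as the treated-group measurement over the vehicle-control measurement.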

[1] = dose: 100.0 mg/kg/injection, schedule: Q01DX001 (ip), vehicle: Klucel (hydroxypropylcellulose) (HPC)
[2] = dose: 100.0 mg/kg/injection, schedule: Q01DX009 (ip), vehicle: Klucel (hydroxypropylcellulose) (HPC)
[3] = dose: 100.0 mg/kg/injection, schedule: Q04DX003 (ip), vehicle: Klucel (hydroxypropylcellulose) (HPC)
[4] = dose: 200.0 mg/kg/injection, schedule: Q01DX001 (ip), vehicle: Klucel (hydroxypropylcellulose) (HPC)
[5] = dose: 200.0 mg/kg/injection, schedule: Q01DX009 (ip), vehicle: Klucel (hydroxypropylcellulose) (HPC)
[6] = dose: 200.0 mg/kg/injection, schedule: Q04DX003 (ip), vehicle: Klucel (hydroxypropylcellulose) (HPC)
[7] = dose: 400.0 mg/kg/injection, schedule: Q01DX001 (ip), vehicle: Klucel (hydroxypropylcellulose) (HPC)
[8] = dose: 400.0 mg/kg/injection, schedule: Q01DX009 (ip), vehicle: Klucel (hydroxypropylcellulose) (HPC)
[9] = dose: 400.0 mg/kg/injection, schedule: Q04DX003 (ip), vehicle: Klucel (hydroxypropylcellulose) (HPC)
[10] = dose: 100.0 mg/kg/injection, schedule: Q01DX001 (ip), vehicle: other
[11] = dose: 100.0 mg/kg/injection, schedule: Q01DX001 (ip), vehicle: saline
[12] = dose: 200.0 mg/kg/injection, schedule: Q01DX001 (ip), vehicle: saline
[13] = dose: 100.0 mg/kg/injection, schedule: Q04DX003 (ip), vehicle: saline with Tween-80
[14] = dose: 200.0 mg/kg/injection, schedule: Q04DX003 (ip), vehicle: saline with Tween-80
[15] = dose: 400.0 mg/kg/injection, schedule: Q04DX003 (ip), vehicle: saline with Tween-80
[16] = dose: 400.0 mg/kg/injection, schedule: Q01DX001 (ip), vehicle: saline

Measured: T/C

COc1ccccc1OC1CCCCC1OS(C)(=O)=O (configuration not stated)
inactive: [1] 95 % of control | [2] 95 % of control | [3] 102 % of control | [4] 105 % of control | [5] 101 % of control | [6] 101 % of control | [7] 95 % of control | [8] 95 % of control | [9] 95 % of control

CC(=O)Nn1cnc2c(SCc3ccccc3)ncnc21
inactive: [10] 96 % of control | dose: 177.0 mg/kg/injection, schedule: Q01DX001 (ip), vehicle: other 105 % of control | dose: 200.0 mg/kg/injection, schedule: Q01DX001 (ip), vehicle: other 100 % of control | dose: 266.0 mg/kg/injection, schedule: Q01DX001 (ip), vehicle: other 115 % of control

Clc1nnc2c3ccccc3ccn12
inactive: [11] 96 % of control | [12] 98 % of control

CC1(C)OC2C(C=O)OC(n3cnc4c(N)ncnc43)C2O1 (configuration not stated)
inactive: dose: 100.0 mg/kg/injection, schedule: Q04DX003 (ip), vehicle: alcohol 102 % of control | dose: 200.0 mg/kg/injection, schedule: Q04DX003 (ip), vehicle: alcohol 102 % of control | dose: 400.0 mg/kg/injection, schedule: Q04DX003 (ip), vehicle: alcohol 96 % of control

C[n+]1cccc(CNC(=O)COc2ccc(Cl)c(Cl)c2)c1
inactive: dose: 25.0 mg/kg/injection, schedule: Q01DX001 (ip), vehicle: saline 106 % of control | dose: 50.0 mg/kg/injection, schedule: Q01DX001 (ip), vehicle: saline 103 % of control | [11] 97 % of control and 109 % of control

O=C(N/N=C/c1ccc(Cl)cc1)c1ccccc1NC(=O)C1CC1
inactive: [2] 97 % of control | [5] 87 % of control | [8] 103 % of control

CC(=O)Oc1ccc2c(c1)C1(C)CCCC(C)(C(=O)O)C1CC2 (configuration not stated)
inactive: [13] 92 % of control | [14] 97 % of control | [15] 94 % of control

Cc1ccccc1NC(=O)Oc1ccc(Cl)cc1Cl
inactive: dose: 100.0 mg/kg/injection, schedule: Q04DX002 (ip), vehicle: gum acacia 107 % of control | dose: 200.0 mg/kg/injection, schedule: Q04DX002 (ip), vehicle: gum acacia 100 % of control | dose: 400.0 mg/kg/injection, schedule: Q04DX002 (ip), vehicle: gum acacia 104 % of control

O=C(O)c1ccc(Br)cc1
inactive: dose: 100.0 mg/kg/injection, schedule: Q04DX003 (ip), vehicle: saline 89 % of control | dose: 200.0 mg/kg/injection, schedule: Q04DX003 (ip), vehicle: saline 86 % of control

COC(=O)N/N=C/c1c[nH]c2ccccc12
inactive: [2] 94 % of control | [5] 106 % of control

Cc1ccccc1OCC(Cl)CN(C)C (configuration not stated)
inactive: [11] 100 % of control | [12] 102 % of control

NS(=O)(=O)c1ccc(N=Cc2ccc3c(c2)OCO3)cc1
inactive: [2] 94 % of control | [5] 92 % of control | [8] 97 % of control

CN(CC(=O)O)Cc1oc(CO)cc(=O)c1O
inactive: [11] 110 % of control | [12] 95 % of control | [16] 95 % of control

Cc1ncc(C(=O)Nc2ccccc2)[nH]1
inactive: [2] 113 % of control | [3] 105 % of control | [5] 106 % of control | [6] 122 % of control

O=C1C(=O)c2cc(Br)ccc2-c2ccc(Br)cc21
inactive: dose: 50.0 mg/kg/injection, schedule: Q01DX001 (ip), vehicle: carboxymethylcellulose (CMC) 107 % of control | dose: 100.0 mg/kg/injection, schedule: Q01DX001 (ip), vehicle: carboxymethylcellulose (CMC) 107 % of control | dose: 200.0 mg/kg/injection, schedule: Q01DX001 (ip), vehicle: carboxymethylcellulose (CMC) 100 % of control | dose: 400.0 mg/kg/injection, schedule: Q01DX001 (ip), vehicle: carboxymethylcellulose (CMC) 89 % of control

CC/C(=N/OC(=O)NC)c1ccccc1
inactive: dose: 44.0 mg/kg/injection, schedule: Q01DX001 (ip), vehicle: other 94 % of control and 106 % of control | dose: 67.0 mg/kg/injection, schedule: Q01DX001 (ip), vehicle: other 93 % of control and 110 % of control | [10] 102 % of control and 110 % of control | dose: 150.0 mg/kg/injection, schedule: Q01DX001 (ip), vehicle: other 96 % of control and 108 % of control

CC1(C)CCc2c(cc(OCc3ccccc3)c(-c3c(OCc4ccccc4)cc4c(c3O)CCC(C)(C)O4)c2O)O1
inactive: [3] 94 % of control | [6] 93 % of control | [9] 94 % of control

Cc1nc(N)[nH]c(=O)c1CCCNCc1ccccc1
inactive: [1] 96 % of control | [4] 94 % of control | [7] 94 % of control

N#CC(C(=O)O)C1(C(C#N)C(=O)O)CCN(Cc2ccccc2)CC1 (configuration not stated)
inactive: dose: 75.0 mg/kg/injection, schedule: Q01DX001 (ip), vehicle: carboxymethylcellulose (CMC) 96 % of control | dose: 150.0 mg/kg/injection, schedule: Q01DX001 (ip), vehicle: carboxymethylcellulose (CMC) 100 % of control | dose: 300.0 mg/kg/injection, schedule: Q01DX001 (ip), vehicle: carboxymethylcellulose (CMC) 102 % of control

COC1OC(COC(c2ccccc2)(c2ccccc2)c2ccccc2)C2OC12 (configuration not stated)
inactive: [11] 94 % of control | [12] 103 % of control | [16] 97 % of control

Oc1ccc2ccccc2c1Cc1cccc2ccccc12
inactive: dose: 100.0 mg/kg/injection, schedule: Q01DX009 (ip), vehicle: saline with Tween-80 90 % of control | dose: 200.0 mg/kg/injection, schedule: Q01DX009 (ip), vehicle: saline with Tween-80 95 % of control

NC(=O)n1cccn1
inactive: dose: 25.0 mg/kg/injection, schedule: Q01DX Z (ip), vehicle: carboxymethylcellulose (CMC) 100 % of control | dose: 50.0 mg/kg/injection, schedule: Q01DX Z (ip), vehicle: carboxymethylcellulose (CMC) 102 % of control | dose: 100.0 mg/kg/injection, schedule: Q01DX Z (ip), vehicle: carboxymethylcellulose (CMC) 102 % of control | dose: 200.0 mg/kg/injection, schedule: Q01DX Z (ip), vehicle: carboxymethylcellulose (CMC) 100 % of control and 109 % of control | dose: 400.0 mg/kg/injection, schedule: Q01DX Z (ip), vehicle: carboxymethylcellulose (CMC) 102 % of control

COC(OC)c1cc(=O)[nH]c(=S)[nH]1
inactive: dose: 25.0 mg/kg/injection, schedule: Q04DX003 (ip), vehicle: Klucel (hydroxypropylcellulose) (HPC) 100 % of control | dose: 50.0 mg/kg/injection, schedule: Q01DX001 (ip), vehicle: Klucel (hydroxypropylcellulose) (HPC) 111 % of control | dose: 50.0 mg/kg/injection, schedule: Q04DX003 (ip), vehicle: Klucel (hydroxypropylcellulose) (HPC) 91 % of control | [1] 90 % of control | [3] 92 % of control | [4] 98 % of control

CCC[CH2][Sn]([CH2]CCC)([CH2]CCC)[CH2]CC(N)=O
inactive: dose: 50.0 mg/kg/injection, schedule: Q01DX009 (ip), vehicle: saline 96 % of control and 106 % of control | dose: 100.0 mg/kg/injection, schedule: Q01DX009 (ip), vehicle: saline 96 % of control and 106 % of control | dose: 200.0 mg/kg/injection, schedule: Q01DX009 (ip), vehicle: saline 101 % of control

CC(=O)NC(C)C#N (configuration not stated)
inactive: [13] 103 % of control | [14] 95 % of control | [15] 95 % of control

CC(=O)OC1(c2ccccc2)OC(=O)C(C)(C)c2ccccc21 (configuration not stated)
inactive: dose: 100.0 mg/kg/injection, schedule: Q01DX001 (ip), vehicle: saline with Tween-80 94 % of control | dose: 200.0 mg/kg/injection, schedule: Q01DX001 (ip), vehicle: saline with Tween-80 91 % of control
